The source of these data is patent publication US12390437B2, “Itaconic acid derivatives and uses thereof intreating an inflammatory disease or a disease associated with an undesirable immune response” (Sitryx Therapeutics Limited, priority 2019, dated 2025).

Data set [1] deals with NRF2. Description: NRF2 +/-GSH activation assay (DiscoverX PathHunter NRF2 translocation kit, U2OS cells). In kind it is cell-based. The conditions noted are these: Homo sapiens. The procedure, abridged: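 Percent activation, normalised to dimethyl fumarate (high) and vehicle (low) controls, was fitted for EC50 after 6 hours treatment of U2OS PathHunter cells. In the +GSH arm compounds were first pre-incubated 30 minutes in 6 mM working GSH; NRF2 translocation read by chemiluminescent complementation.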

The test system of data set [2] is IL-1β cytokine output from THP-1s. In words: THP-1 AlphaLISA IL-1β cytokine assay. The settings on record: Homo sapiens, read-out: IL-1β (IC50). The data set is classed as cell-based, human. The procedure, abridged:
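AlphaLISA read-out of cytokine released into supernatants of differentiated THP-1 cells. Cells were PMA-treated for 72 h, exposed to compound for 30 min, stimulated with LPS for 24 h, then given nigericin for 1 h before harvest. IC50 values come from normalised concentration-response curves.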

Data set [3] in a line: Hepatocyte stability assay (human). The data set is classed as in vitro ADME. The conditions noted are these: cryopreserved hepatocytes, 10 μM compound, 0.5×10^6 cells/mL, 60 minutes, read-out: T½. The procedure, abridged:
(§1)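 Cryopreserved hepatocytes (viability >70%), 0.5×10^6 cells/mL in Leibovitz buffer, incubated at 37 °C with 10 μM compound (0.1% DMSO), duplicates; buffer-only incubations as negative control. Samples at 0-60 min quenched in acetonitrile, parent measured by LC-MS/MS; half-life and Clint (μL min^−1 10^−6 cells) from ln % remaining versus time slope.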

The test system of data set [4] is hepatocytes. Description: Hepatocyte stability assay (human). The conditions noted are these: 10 μM compound, 0.5×10^6 cells/mL, 60 minutes. The data set is classed as in vitro ADME. The gist of the method:
as §1

Where [5] appears, read: U2OS, normalised to dimethyl fumarate 'High' control, GSH condition not stated in Table 5, read-out: NRF2 activation Emax.
[6] abbreviates: U2OS PathHunter cells, 6 hours, GSH condition not stated in Table 5, read-out: NRF2 activation EC50.
Setting [7] is: THP-1, PMA-differentiated THP-1 cells, LPS 24 hr then Nigericin 1 hour.

Structures are written as SMILES. Read-outs that look alike come from different tables or passages of the source.

What is called Emax is the size of the effect at its maximum, as opposed to the concentration needed. In general, EC50 refers to the concentration at which the effect is half-maximal. What is called IC50 is the point on the concentration scale where inhibition reaches its midpoint. Take `C=C(CC(=O)OCCCCCC)C(=O)OCC(=O)O` [Example 94, 2-((4-(hexyloxy)-2-methylene-4-oxobutanoyl)oxy)acetic acid]: the maximal response (Emax) in data set [1] (setting [5]) came out at 193%. Further, the EC50 in data set [1] (setting [6]) turned out to be 22.2 µM. The IC50 in data set [2] (setting [7]) came out at 5.3 µM. The half-life at 10 μM in data set [3] came out at 85 min. Further, the “CIint (μL min^−1 10^−6 cells)” value in data set [4] stood at 16 μL min^−1 10^−6 cells.
In the case of `C=C(CC(=O)OC1CC2(CCC2)C1)C(=O)OCC(=O)O` [Example 96, 2-((2-methylene-4-oxo-4-(spiro[3.3]heptan-2-yloxy)butanoyl)oxy)acetic acid], the maximal effect (Emax) in data set [1] (setting [5]) is 180%. The EC50 in data set [1] (setting [6]) was 21.2 µM. The IC50 in data set [2] (setting [7]) came to 15.7 µM. Moreover, in data set [3], the half-life at 10 μM is 126 min. For the same molecule, the “CIint (μL min^−1 10^−6 cells)” value in data set [4] is listed as 11 μL min^−1 10^−6 cells.
As to `C=C(CC(=O)O[C@H](C)CCCCCC)C(=O)OCC(=O)O` [Example 112, (R)-2-((2-methylene-4-(octan-2-yloxy)-4-oxobutanoyl)oxy)acetic acid], the EC50 was found to be 8.9 µM in data set [1] (U2OS, Table 10, assay of Biological Example 5 (NRF2), read-out: EC50) and 8.9 µM in data set [1] (setting [6]). Moreover, the Emax in data set [1] (U2OS, Table 10, assay of Biological Example 5 (NRF2), read-out: Emax) is 173%; in data set [1] (setting [5]), 173%. Moreover, the IC50 in data set [2] (setting [7]) was found to be 14.6 µM; in data set [2] (THP-1, Table 10, assay of Biological Example 1 (THP-1)), 14.6 µM. The half-life at 10 μM in data set [3] is 25 min. For the same molecule, in data set [4], the “CIint (μL min^−1 10^−6 cells)” value was found to be 65 μL min^−1 10^−6 cells.
Take `C=C(CC(=O)OC1CCCCC1)C(=O)OCc1nnn[nH]1` [Example 125, 1-((2H-tetrazol-5-yl)methyl) 4-cyclohexyl 2-methylenesuccinate]: the Emax in data set [1] (setting [5]) turned out to be 116%. In addition, the EC50 in data set [1] (setting [6]) was found to be 38.3 µM. For the same molecule, in data set [2] (setting [7]), the IC50 is 17 µM. The half-life at 10 μM in data set [3] was determined as 198 min. For the same molecule, the “CIint (μL min^−1 10^−6 cells)” value in data set [4] amounted to 9 μL min^−1 10^−6 cells.
Consider `C=C(CC(=O)O[C@@H](C)CCCCCC)C(=O)OCCc1nnn[nH]1` [Example 129, (S)-1-(2-(1H-tetrazol-5-yl)ethyl) 4-octan-2-yl 2-methylenesuccinate], for which, in data set [1] (setting [5]), the maximal response (Emax) worked out at 178%. In data set [1] (setting [6]), the half-maximal effective concentration (EC50) turned out to be 5.8 µM. Besides, the IC50 in data set [2] (setting [7]) stood at 5.5 µM. For the same molecule, in data set [3], the half-life at 10 μM amounted to 108 min. For the same molecule, the “CIint (μL min^−1 10^−6 cells)” value in data set [4] turned out to be 55 μL min^−1 10^−6 cells.
Taken in the same sequence, the figures for `C=C(CC(=O)OC1CCCCCCC1)C(=O)OC(C)c1nnn[nH]1` (stereo not shown) [Example 133, 1-(1-(1H-tetrazol-5-yl)ethyl) 4-cyclooctyl 2-methylenesuccinate] were 227%, 33.3 µM, 14.8 µM, 30 min and 48 μL min^−1 10^−6 cells.
In the case of `C=C(CC(=O)OC1CCCCCCC1)C(=O)OCc1nnn[nH]1` [Example 134, 1-((1H-tetrazol-5-yl)methyl) 4-cyclooctyl 2-methylenesuccinate], the maximal effect (Emax) in data set [1] (setting [5]) came to 183%. The concentration giving a half-maximal response (EC50) in data set [1] (setting [6]) came out at 20 µM. The half-maximal inhibitory concentration (IC50) in data set [2] (setting [7]) was 9.8 µM. Further, the half-life at 10 μM in data set [3] worked out at 53 min. The “CIint (μL min^−1 10^−6 cells)” value in data set [4] was found to be 27 μL min^−1 10^−6 cells.
As to `C=C(CC(=O)O[C@H](C)CCCCCC)C(=O)OCc1nn[nH]n1` [Example 161, (R)-1-((2H-tetrazol-5-yl)methyl) 4-(octan-2-yl) 2-methylenesuccinate], in data set [1] (setting [5]), the Emax was determined as 146%. Besides, the EC50 in data set [1] (setting [6]) was 5 µM. For the same molecule, the IC50 in data set [2] (setting [7]) is 6.8 µM. Besides, the half-life at 10 μM in data set [3] worked out at 22 min. Besides, in data set [4], the “CIint (μL min^−1 10^−6 cells)” value turned out to be 55 μL min^−1 10^−6 cells.
For `C=C(CC(=O)O[C@@H](C)CCCCCC)C(=O)OCc1nn[nH]n1` [Example 164, (S)-1-(2H-tetrazol-5-yl)methyl 4-octan-2-yl 2-methylenesuccinate], in data set [1] (setting [5]), the maximal effect (Emax) came out at 168%. In addition, the EC50 in data set [1] (setting [6]) was 4.9 µM. The concentration for half-maximal inhibition (IC50) in data set [2] (setting [7]) worked out at 2 µM. Further, the half-life at 10 μM in data set [3] is 33 min. Moreover, the “CIint (μL min^−1 10^−6 cells)” value in data set [4] worked out at 42 μL min^−1 10^−6 cells.
As to `C=C(CC(=O)O[C@@H](CCCCCC)C(F)(F)F)C(=O)OCC(=O)O` [Example 182, (S)-2-((2-methylene-4-oxo-4-((1,1,1-trifluorooctan-2-yl)oxy)butanoyl)oxy)acetic acid], the Emax in data set [1] (setting [5]) is 188%. Moreover, in data set [1] (setting [6]), the EC50 was 5.5 µM. For the same molecule, in data set [2] (setting [7]), the IC50 is 6.1 µM. Also, the half-life at 10 μM in data set [3] is 28 min. For the same molecule, the “CIint (μL min^−1 10^−6 cells)” value in data set [4] stood at 60 μL min^−1 10^−6 cells.
As to `C=C(CC(=O)OC(C)(C)CCCCCC)C(=O)OCC(=O)O` [Example 192, 2-((2-methylene-4-((2-methyloctan-2-yl)oxy)-4-oxobutanoyl)oxy)acetic acid], the maximum response (Emax) in data set [1] (setting [5]) stood at 194%. Also, the EC50 in data set [1] (setting [6]) was determined as 11.8 µM. Further, in data set [2] (setting [7]), the IC50 worked out at 10.6 µM. In addition, the half-life at 10 μM in data set [3] came to 54 min. Also, the “CIint (μL min^−1 10^−6 cells)” value in data set [4] turned out to be 32 μL min^−1 10^−6 cells.
